Counter-ions that a name gives are not always drawn. Like-named read-outs stand apart in the source and are kept apart here.
Experiments:
K562 cells = assay: Cell Titer Glo 2.0 cell viability assay, K562; type: cell-based; conditions: Homo sapiens, 72 hours incubation
Description: Compounds described herein were screened for toxicity in K562 (human chronic myelogenous leukemia) and SH-SY5Y (human neuroblastoma) cells using a Cell Titer Glo 2.0 assay.
• Promega CellTiter-Glo® 2.0 Cell Viability Assay (cat #G9241) • Corning 384-well TC-treated microplates (cat #3570)
Cells were plated at 500 cells/well (K562 cells) in 45 μL of IMDM supplemented with 10% FBS in a 384-well opaque plate. Wells containing only medium were used as a blank control. Test compounds (e.g., compounds of Formula (I) or (II)) were first serially diluted in DMSO then diluted 1:100 with EIDM+10% FBS. The final concentration of DMSO was 0.1% in each well. The cells were incubated for 72 hours at 37° C. and 5% CO2 before assaying with Cell Titer Glo 2.0 reagent.

MYB mRNA = assay: Splicing RT-qPCR assay, MYB canonical (CJ) and alternative (AJ) junction mRNA; type: cell-based, human; conditions: Homo sapiens; for AC50: read-out: MYB AJ (AC50, increase in alternative junction mRNA)
Method in brief: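 Read-out is the abundance of canonical-junction versus new alternative-exon-junction mRNA, determined by real-time qPCR after cDNA synthesis and normalized to a housekeeping gene. It is measured in A673 or K562 cells exposed to compounds for 24 h, top dose 10 uM.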

Target C = assay: Protein abundance, HiBit-assay system (Promega), Target C; type: cell-based, human; conditions: Table 6; HiBiT-modified K562 cells, 24 hours
Description: Compounds described herein were used to screen for effects on quantitative protein abundance using a HiBit assay system (Promega). Quantitative protein abundance was determined by measuring the protein levels of HiBit-tagged protein targets expressed in cell culture via luminescence using the Nano-Glo HiBiT Lytic Detection System, which uses a split complementation assay format to reconstitute NanoBiT enzyme to generate a luminescent signal. A protein abundance assay was developed such that endogenous protein targets could be modified with the HiBiT peptide tag and their abundance could be assessed after compound treatment. Briefly, K562 cell lines containing a HiBiT-modification were treated with various compounds described herein (e.g., compounds of Formulas (I) or (II)). After treatment for 24 hours, the protein abundance of a specific target was determined by measuring luminescence.
Cells were maintained in EIDM with 10% FBS. Before the assay, cells were diluted with […] growth media (EIDM+1% FBS media) and were seeded in a 384-well plate at a density of 10000 cells/well (for each cell line listed in Table 5). Each compound was prepared as a 10-point 3-fold serial dilution in DMSO with the top dose at a final concentration of 10 μM in the well. Unmodified K562 cells were added at the previously specified density with DMSO to serve as an assay baseline and positive control (PC) and DMSO only with the respective modified cell lines was added to the negative control (NC) columns. Final DMSO concentration was kept at or below 0.25%. Treated cell plates were placed in an incubator at 37° C. with 5% CO2 for 24 hours. After 24 hours, 25 μL of Complete HiBit Lytic reagent was added to each well at room temperature (e.g. one plate requiring 10 mL Lytic Buffer, 100 μL LgBiT Protein, 200 μL Lytic Substrate), shaken for 5 minutes at 600 RPM, then left to sit for 10 minutes for signal to stabilize before reading on a Spark Cyto plate reader (Tecan) with a 500 ms measurement time.
To determine compound effects on protein abundance of each target in Table 6, the percent response for each respective cell line was calculated at each compound concentration as follows:
For the normalized response at each concentration, a four-parameter logistical regression was fit to the data and the response was interpolated at the 50% value to determine a concentration for protein abundance at […] the untreated control.

[1] = Tables 4A/4B, canonical junction qPCR panel, read-out: MYB (IC50, decrease in CJ mRNA, gene panel)
[2] = 24 h, A673 or K562 cells, 24 hours compound treatment, RT-qPCR
[3] = 24 h, A673 or K562 cells, 24 hours compound treatment, RT-qPCR, read-out: MYB CJ (IC50, decrease in canonical junction mRNA)
[4] = A673 or K562 cells, 24 hours compound treatment, RT-qPCR
[5] = A673 or K562 cells, 24 hours compound treatment, RT-qPCR, read-out: MYB CJ (IC50, decrease in canonical junction mRNA)

Row | Compound | GI50 (K562 cells) [µM] | IC50 (MYB mRNA; [1]) [µM] | IC50 (Target C) [µM] | IC50 (MYB mRNA; [3]) [µM] | AC50 (MYB mRNA; [2]) [µM] | AC50 (MYB mRNA; [4]) [µM] | IC50 (MYB mRNA; [5]) [µM]
1 | Cc1cn2nc(NC(=O)c3ccc(C4CCNCC4)c4ccoc34)cc(C)c2n1 [Compound 119] | 1 to 10 | 1 to 10 | > 10 | 1 to 10 | 1 to 10 |  | 
2 | CCC1CN(c2ccc(C(=O)Nc3cc(F)c4nc(C)cn4c3)c3oc(C)cc23)CCN1 (stereo not drawn) [Compound 192] | 0.1 to 1 | 0.1 to 1 | 1 to 10 | 0.1 to 1 | 0.1 to 1 |  | 
3 | Cc1cn2cc(NC(=O)c3ccc(N4CCNC(C)(C)C4)c4cc(C)oc34)cc(F)c2n1 [Compound 193] | 0.1 to 1 | 0.1 to 1 | > 10 | 0.1 to 1 | 0.1 to 1 |  | 
4 | Cc1cn2cc(NC(=O)c3ccc(N4CCNC5(CC5)C4)c4cc(C)oc34)cc(F)c2n1 [Compound 194] | 0.1 to 1 | 0.1 to 1 | > 10 |  |  |  | 
5 | Cc1cn2cc(NC(=O)c3ccc(N4CC(C)(C)NC(C)(C)C4)c4cc(C)oc34)cc(F)c2n1 [Compound 195] | 0.1 to 1 | 0.1 to 1 | 1 to 10 | 0.1 to 1 | 1 to 10 |  | 
6 | CCNC1CCN(c2ccc(C(=O)Nc3cc(F)c4nc(C)cn4c3)c3oc(C)cc23)CC1 [Compound 196] | < 0.1 | 0.1 to 1 | 1 to 10 |  |  |  | 
7 | Cc1cn2cc(NC(=O)c3ccc(N4CCC(NC(C)(C)C)CC4)c4cc(C)oc34)cc(F)c2n1 [Compound 197] | 0.1 to 1 | 1 to 10 | > 10 | 1 to 10 | 1 to 10 |  | 
8 | CC1=CC2C(N3CCC(N(C)C)CC3)=CC=C(C(=O)Nc3cc(F)c4nc(C)cn4c3)C2O1 (stereo not drawn) [Compound 198] | < 0.1 | < 0.1 | > 10 |  |  |  | 
9 | Cc1cn2cc(NC(=O)c3ccc(N4CCN5CCCC5C4)c4cc(C)oc34)cc(F)c2n1 (stereo not drawn) [Compound 199] | 0.1 to 1 | 0.1 to 1 | > 10 | 0.1 to 1 | 0.1 to 1 |  | 
10 | Cc1cc2c(N3CCNCC3)ccc(C(=O)Nc3cc(F)c4cn(C)nc4c3)c2o1 [Compound 217] | 0.1 to 1 | > 10 | > 10 | > 10 | > 10 |  | 
11 | CCn1cc2c(N3CC[C@@H](NC)C3)ccc(C(=O)Nc3cc(Cl)c4nc(C)cn4c3)c2n1 [Compound 556, N-{8-chloro-2-methylimidazo[1,2-a]pyridin-6-yl}-2-ethyl-4-[(3R)-3-(methylamino)pyrrolidin-1-yl]indazole-7-carboxamide] | 0.1 to 1 |  | 1 to 10 | 1 to 10 | > 10 |  | 
12 | CCn1cc2c(N3CCC(N[C@H]4C[C@H](O)C4)CC3)ccc(C(=O)Nc3cc(F)c4nc(C)cn4c3)c2n1 [Compound 560, 2-ethyl-N-{8-fluoro-2-methylimidazo[1,2-a]pyridin-6-yl}-4-(4-{[(1r,3r)-3-hydroxycyclobutyl]amino}piperidin-1-yl) indazole-7-carboxamide] | < 0.1 |  | 1 to 10 | 0.1 to 1 | 0.1 to 1 |  | 
13 | Cc1cn2cc(NC(=O)c3ccc(N4CC[C@@H](N5CCNCC5)C4)c4cn(C)nc34)cc(F)c2n1 [Compound 562, N-{8-fluoro-2-methylimidazo[1,2-a]pyridin-6-yl}-2-methyl-4-[(3R)-3-(piperazin-1-yl)pyrrolidin-1-yl]indazole-7-carboxamide hydrochloride] | 1 to 10 |  | > 10 | 1 to 10 | 1 to 10 |  | 
14 | Cc1cn2cc(NC(=O)c3ccc(N4CC5NC5C4)c4cn(C)nc34)cc(F)c2n1 (stereo not drawn) [Compound 563, 4-{3,6-diazabicyclo[3.1.0]hexan-3-yl}-N-{8-fluoro-2-methylimidazo[1,2-a]pyridin-6-yl}-2-methylindazole-7-carboxamide] | 0.1 to 1 |  | 0.1 to 1 |  |  | < 0.1 | < 0.1
15 | Cc1cn2cc(NC(=O)c3ccc(N4C5CNCC54)c4cn(C)nc34)cc(F)c2n1 (stereo not drawn) [Compound 564, 4-{3,6-diazabicyclo[3.1.0]hexan-6-yl}-N-{8-fluoro-2-methylimidazo[1,2-a]pyridin-6-yl}-2-methylindazole-7-carboxamide] | 0.1 to 1 |  | 0.1 to 1 |  |  | < 0.1 | < 0.1

Now from value to compound, other results behind:

Row | GI50 (K562 cells) [µM] | IC50 (MYB mRNA; [1]) [µM] | IC50 (Target C) [µM] | IC50 (MYB mRNA; [3]) [µM] | Compound | AC50 (MYB mRNA; [2]) [µM] | AC50 (MYB mRNA; [4]) [µM] | IC50 (MYB mRNA; [5]) [µM]
16 | 0.1 to 1 | 0.1 to 1 | 1 to 10 |  | Cc1cn2nc(NC(=O)c3ccc(C4CCNCC4)c4cc(C)oc34)cc(C)c2n1 [Compound 118] |  |  | 
17 | 1 to 10 | 1 to 10 | 1 to 10 |  | Cc1cn2cc(NC(=O)c3ccc(N4CCNCC4)c4nc(C)oc34)cc(F)c2n1 [Compound 140] |  |  | 
18 | 0.1 to 1 | < 0.1 | 1 to 10 | < 0.1 | Cc1cn2cc(NC(=O)c3ccc(N4CCNCC4)c4oc(C)nc34)cc(F)c2n1 [Compound 141] | < 0.1 |  | 
19 | 0.1 to 1 | 0.1 to 1 | 1 to 10 | 0.1 to 1 | Cc1cn2cc(NC(=O)c3ccc(N4CCNCC4)c4cc(C)oc34)cc(F)c2n1 [Compound 142] | 0.1 to 1 |  | 
20 | 0.1 to 1 | < 0.1 | < 0.1 |  | Cc1cn2cc(NC(=O)c3ccc(N4CCNCC4)c4cn(C)nc34)cc(F)c2n1 [Compound 143, N-{8-fluoro-2-methylimidazo[1,2-a]pyridin-6-yl}-2-methyl-4-(piperazin-1-yl) indazole-7-carboxamide] |  |  | 
21 |  | 0.1 to 1 | 1 to 10 | 0.1 to 1 | Cc1cn2cc(NC(=O)c3ccc(C4CCNCC4)c4cc(C)oc34)cc(F)c2n1 [Compound 145] | 0.1 to 1 |  | 
22 | 1 to 10 | 1 to 10 | 1 to 10 | 1 to 10 | Cc1cn2nc(NC(=O)c3ccc(N4CCNCC4)c4cc(C)oc34)cc(C)c2n1 [Compound 148] | 1 to 10 |  | 
23 | 0.1 to 1 | 0.1 to 1 | 1 to 10 | 0.1 to 1 | Cc1cn2cc(NC(=O)c3ccc(C4CCNCC4)c4ccoc34)cc(F)c2n1 [Compound 149] | 0.1 to 1 |  | 
24 | 0.1 to 1 | 0.1 to 1 | 1 to 10 | 0.1 to 1 | Cc1cn2cc(NC(=O)c3ccc(N4CCN(C)CC4)c4cc(C)oc34)cc(F)c2n1 [Compound 189] | 0.1 to 1 |  | 
25 | 0.1 to 1 | < 0.1 | 1 to 10 | < 0.1 | Cc1cn2cc(NC(=O)c3ccc(N4CCNC(C)C4)c4cc(C)oc34)cc(F)c2n1 (stereo not drawn) [Compound 190] | < 0.1 |  | 
26 | 0.1 to 1 | 0.1 to 1 | 1 to 10 | 0.1 to 1 | Cc1cn2cc(NC(=O)c3ccc(N4CCN(C)C(C)C4)c4cc(C)oc34)cc(F)c2n1 (stereo not drawn) [Compound 191] | 0.1 to 1 |  | 
27 | 0.1 to 1 | < 0.1 | 0.1 to 1 |  | Cc1cn2cc(NC(=O)c3ccc(C4CCNCC4)c4cn(C)nc34)cc(F)c2n1 [Compound 208] |  |  | 
28 | < 0.1 |  | 0.1 to 1 | < 0.1 | CCn1cc2c(N3CCC(N)(CC)CC3)cc(F)c(C(=O)Nc3cc(F)c4nc(C)cn4c3)c2n1 [Compound 557, 4-(4-amino-4-ethylpiperidin-1-yl)-2-ethyl-6-fluoro-N-{8-fluoro-2-methylimidazo[1,2-a]pyridin-6-yl}indazole-7-carboxamide] | < 0.1 |  | 
29 | < 0.1 |  | 0.1 to 1 | < 0.1 | CCn1cc2c(N3CCC(N[C@H]4C[C@@H](O)C4)CC3)ccc(C(=O)Nc3cc(F)c4nc(C)cn4c3)c2n1 [Compound 559, 2-ethyl-N-{8-fluoro-2-methylimidazo[1,2-a]pyridin-6-yl}-4-(4-{[(1s,3s)-3-hydroxycyclobutyl]amino}piperidin-1-yl) indazole-7-carboxamide] | < 0.1 |  | 
